Results on one molecule are retold here after US20240238246A1, “METHODS FOR PREVENTING OR SLOWING THE PROGRESSION OF COGNITIVE DECLINE OR IMPAIRMENT IN SUBJECTS” (AGENEBIO, INC., priority 2023, published 2024).

For data set [1], the system named is subjects with MCI due to Alzheimer's disease. The data set can be described thus: Phase IIb placebo-controlled 78-week study, Clinical Dementia Rating-Sum of Boxes (CDR-SB). It is filed as in vivo, human. As to the method: (§1) This example describes a phase IIb multicenter, randomized, double-blind, placebo-controlled study evaluating the efficacy and safety of a low-dose levetiracetam, 220 mg, extended-release tablet on slowing progression of MCI due to Alzheimer's disease (prodromal Alzheimer's disease), the results being evaluated using the well-recognized and accepted Clinical Dementia Rating-Sum of Boxes (CDR-SB) scores.
(§2) Subjects for this study were between 55 and 85 years old (inclusive) in good general health, willing and able to consent and to participate for the duration of the study, having an eighth-grade education or good work history sufficient to exclude mental retardation, having visual and auditory acuity adequate for neuropsychological testing, and having proficient fluency of the native local language to participate in all the neuropsychological test assessments. The clinical assessments of 63 participants were used for the analyses.
Blood samples were taken from each subject to determine APOE4 carrier status. Genomic DNA was prepared from the blood samples according to standard procedures. Quality of the genomic DNA samples were quantified using Optical Density and DNA purity was calculated. Using extracted genomic DNA as a template, locus specific DNA fragments were amplified by polymerase chain reaction (PCR). Purified PCR products were used as templates for sequencing reactions. According to the chain terminating methodology of Sanger et al (Sanger F, Nicklen S, Coulson A R. DNA sequencing with chain-terminating inhibitors. Proc Natl Acad Sci USA. 1977 December; 74(12):5463-7), analysis of DNA sequence was based on the termination of a growing DNA strand due to incorporation of a dye labeled ddNTP by the DNA polymerase. The resulting dye-labeled product was detected using an automated sequencing platform. Data was analyzed using the software SEQPATIENT from JSI-medical Systems®.
(§3) The study included up to a 5-week screening period consisting of 3 visits and a 78-week treatment period consisting of 10 visits (1 baseline visit, 3 telephone call visits, and 6 clinic visits). The primary endpoint of the study was the analysis of the change in CDR-SB score from baseline to 78 weeks. Secondary endpoints included the analysis of the change in Functional Activities Questionnaire (FAQ) score from baseline to 78 weeks. Subjects received a low-dose levetiracetam, 220 mg, extended-release tablet or placebo in the morning in identically appearing extended release, one unit oral dosage forms.
CDR-SB testing was performed using standard methods. Briefly, subjects were tested using the following six categories or “boxes”: Memory, Orientation, Judgment and Problem Solving, Community Affairs, Home and Hobbies, and Personal Care. CDR-SB scores were calculated by adding the box scores. The total score ranges from 0 to 18 with a higher scores indicating more impairment). Absolute values and changes from baseline in CDR-SB were summarized using descriptive statistics and presented by APOE4 non-carrier status. Table 3 summarizes the statistical analysis wherein each cell contains a point estimate followed by a 95% Confidence Interval (CI).

For data set [2] the following is noted: cited from earlier work.
Data set [3] has as its system subjects with MCI due to Alzheimer's disease. Put plainly: Phase IIb placebo-controlled 78-week study, Functional Activities Questionnaire (FAQ) score. In kind it is in vivo, human. The protocol: as §1, §2, §3
FAQ scores were obtained to measure the functional ability of individuals over time. Briefly, FAQ measures instrumental activities of daily life, such as preparing meals and balancing a check book as these functional changes are found earlier in the dementia process compared to more basic activities. The Questionnaire comprises 10 questions which are answered using a 0-3 scoring system for each question with 0 being normal and 3 being dependent on someone else to complete the task. […]

Data set [4] has as its system entorhinal cortex (ERC) and Brodmann area 35 (BA35) volume in APOE-4 non-carriers. The data set can be described thus: Volumetric MRI of medial temporal lobe subregions (ASHS-T1 segmentation) in the phase IIb study. It is filed as in vivo, human. Particulars: APOE-4 non-carriers (n=26), baseline to week 78. An excerpt:
Brain regions of interest were selected prior to the trial apriori based on the location of post-mortem tau accumulation in the early stage of AD (Braak et al., Acta Neuropathologica, 112(4): 389-404 (2006); Braak & Braak, Acta Neuropathologica, 80(5): 479-486 (1990)) and robust atrophy in entorhinal cortex volume in the AD. For this purpose, the Automated Segmentation of Hippocampal Subfields (ASHS) software (Xie et al., Hum Brain Mapp. 40:3431-3451 (2019)) was used. Regions provided by this software include the left and right entorhinal cortex (ERC), Brodmann area 35 (BA35), which largely overlaps with TEC (Braak et al., Acta Neuropathologica, 112(4): 389-404 (2006); Braak & Braak, Acta Neuropathologica, 80(5): 479-486 (1990))) and includes a portion of the perirhinal cortex and BA36, which predominantly encompasses the perirhinal cortex (Xie et al., 2019). High-resolution T1-weighted MRI images of the subjects' brain were collected at baseline and 78 weeks using an MRI scanner. Automatic segmentation was performed using the T1-weighted MRI images using the ASHS-T1 open-source software and see, also Xie et al., Hum Brain Mapp. 40:3431-3451 (2019). […] Volumetric and thickness measurements of the ERC and BA35 were extracted for each subject. […]

Where [5] appears, read: APOE-4 non-carrier subgroup (n=26).

As for `CC[C@@H](C(N)=O)N1CCCC1=O` [levetiracetam, (2S)-2-(2-oxopyrrolidin-1-yl)butanamide], in data set [1] (APOE4 non-carriers (n = 63), 78 weeks), the “CDR-SB Treatment Effect (Difference) versus placebo (point estimate, 95% CI)” value is −0.56 (CI: −1.90, 0.47). For the same molecule, in data set [1] (APOE4 non-carriers (n = 63), baseline to 78 weeks, 220 mg extended-release tablet), the “CDR-SB change score (point estimate, 95% CI)” value was 0.96 (CI: 0.08, 2.01). The results for the “Mean CDR-SB change score at Week 78” value in data set [1] (APOE-4 carrier subgroup (n=54)) and in data set [1] (entire study population) were 0.95 and 1.12, respectively. In addition, the “Estimated average treatment effect on CDR-SB change score” value was −0.10 in data set [1] (APOE-4 carrier subgroup, Week 78, versus placebo); −0.45 in data set [1] (APOE-4 non-carrier subgroup, Week 78, versus placebo); −0.10 in data set [1] (entire study population, Week 78, versus placebo (p=0.71)). Moreover, the “Mean CDR-SB change from baseline at Week 78” value in data set [1] (setting [5]) turned out to be 0.68. In addition, the “Time of peak plasma concentrations” value in data set [2] (following oral administration) is listed as “about 1 hour”. In data set [2] (in vivo), the Plasma half-life entry was “approximately 7±1 hour”. The “Time to achieve steady state” value in data set [2] (multiple twice-daily dosing) is listed as 2 days. The “Absorption after oral administration” value in data set [2] (oral administration) was “rapidly and almost completely absorbed”. Besides, the “Effect of food on bioavailability” value in data set [2] (oral administration) is reported as “not affected by food”. In addition, the “Mean FAQ total score change from baseline to week 78” value is recorded as 5 in data set [3] (APOE-4 carrier subgroup (n=54)) and 1.8 in data set [3] (setting [5]). In addition, the “Estimated mean FAQ score from baseline at 78 weeks (95% CI)” value in data set [3] (entire study population) is recorded as 3.82 (95% CI: 2.10, 5.17). Moreover, the “Left ERC mean volume change” value in data set [4] (p=0.048 vs placebo) is −1.878%. Moreover, the “Right BA35 mean volume change” value in data set [4] (p=0.094 vs placebo) is reported as −0.789%.
